Data from US11028066B2, “Inhibitors of lysine specific demethylase-1” (CELGENE QUANTICEL RESEARCH, INC., priority 2014, dated 2021).

What was measured:
[1] = target: full-length human LSD1 (Homo sapiens (Human), UniProt O60341); assay: In vitro enzyme inhibition assay LSD-1 (TR-FRET); format: biochemical; details: H3K4me1-biotin peptide
Summary of the method: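 Demethylase activity of full-length human LSD1 was detected by TR-FRET after 1 hour incubation at room temperature. Excitation was at 320 nm, with emission at 615 nm and 665 nm. IC50 values were derived from the inhibition data.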

[2] = system: THP-1 (AML) cells; assay: LSD1 CD11b cellular assay (flow cytometry); format: cell-based; details: Homo sapiens, THP-1, 96 h; CD11b expressing cells, 4 days incubation
[3] = system: Kasumi-1; assay: Kasumi-1 AML cell line proliferation assay (Cell-MTS assay); format: cell-based; details: Homo sapiens, 168 hours incubation
Text: Colorimetric cellular assay to assess the ability of LSD-1 small molecule inhibitors to effect the proliferation of the established AML cancer cell line Kasumi-1.
This Cell-MTS assay is a 7-day plate based colorimetric assay which quantifies the amount of newly generated NADH in the presence and absence of test compound. These NADH levels are used as a proxy for the quantification of cancer cell proliferation.
The established cancer cell line Kasumi-1 with a verified p53 mutation were purchased from American Type Culture Collection (ATCC) and routinely passaged according to ATCC published protocols. For routine assay these cells were seeded at a density of 20,000 cells per 96-well. 24 hours after plating, cells received an 11 point dilution of test compound with final concentration ranges from 100 μM to 2.0 nM. Cells are incubated in the presence of compound for 168 hours at 37° C., 5% CO2. At the end of this compound incubation period, 80 μl of media is removed and 20 μL of CellTiter 96® AQueous Non-Radioactive Cell Proliferation Assay solution (Promega) is added. The cells are incubated until the OD490 is >0.6. IC50 values are calculated using the IDBS XLfit software package and include background subtracted OD490 values and normalization to DMSO controls.
Table 5 provides the Kasumi-1 cellular IC50 values of various substituted heterocyclic compounds disclosed herein.

| Structure (SMILES) | IC50 [1] [nM] | IC50 [2] [nM] | IC50 [3] [nM] |
| --- | --- | --- | --- |
| COc1ccc(-c2c(-c3ccc(C#N)c(F)c3)nc(NC[C@H]3CCNC3)c(=O)n2C)cc1 [Example 55, 2-fluoro-4-{3-(4-methoxy-phenyl)-4-methyl-5-oxo-6-[((3S)-pyrrolidin-3-ylmethyl)-amino]-4,5-dihydro-pyrazin-2-yl}-benzonitrile] | < 100 | < 100 | ≤ 100 |
| Cn1c(-c2ccc3c(c2)ncn3C)c(-c2ccc(C#N)c(F)c2)nc(N2CCC(N)CC2)c1=O [Example 60, 4-[6-(4-amino-piperidin-1-yl)-4-methyl-3-(1-methyl-1H-benzoimidazol-5-yl)-5-oxo-4,5-dihydro-pyrazin-2-yl]-2-fluoro-benzonitrile] | < 100 | < 100 | ≤ 100 |
| Cc1ccc(-c2c(-c3ccc(C#N)c(F)c3)nc(N3CCC(N)CC3)c(=O)n2C)cn1 [Example 66, 4-[6-(4-Amino-piperidin-1-yl)-4-methyl-3-(6-methyl-pyridin-3-yl)-5-oxo-4,5-dihydro-pyrazin-2-yl]-2-fluoro-benzonitrile] | < 100 | < 100 | ≤ 100 |
| COc1ccc(-c2c(-c3ccc(C#N)c(F)c3)cc(NC[C@H]3CCNC3)c(=O)n2C)cc1 [Example 70, (S)-2-fluoro-4-(2-(4-methoxyphenyl)-1-methyl-6-oxo-5-(pyrrolidin-3-ylmethylamino)-1,6-dihydropyridin-3-yl)benzonitrile] | < 100 | < 100 | ≤ 100 |
| Cn1c(-c2ccc(C3CC3)cc2)c(-c2ccc(C#N)c(F)c2)cc(NC[C@H]2CCNC2)c1=O [Example 74, (S)-4-(2-(4-cyclopropylphenyl)-1-methyl-6-oxo-5-(pyrrolidin-3-ylmethylamino)-1,6-dihydropyridin-3-yl)-2-fluorobenzonitrile] | < 100 | < 100 | ≤ 100 |
| Cc1ccc(-c2c(-c3ccc(C#N)cc3)cc(N3CCC(N)CC3)c(=O)n2C)cc1 [Example 75, 4-[5-(4-aminopiperidin-1-yl)-1-methyl-2-(4-methylphenyl)-6-oxopyridin-3-yl]benzonitrile] | < 100 | < 100 | ≤ 100 |
| Cc1ccc(-c2c(-c3ccc(C#N)c(F)c3)cc(N3CCC(N)CC3)c(=O)n2C)cc1 [Example 76, 4-[5-(4-aminopiperidin-1-yl)-1-methyl-2-(4-methylphenyl)-6-oxopyridin-3-yl]-2-fluorobenzonitrile] | < 100 | < 100 | ≤ 100 |
| COc1ccc(-c2c(-c3ccc(C#N)cc3)cc(N3CCC(N)CC3)c(=O)n2C)cc1 [Example 77, 4-[5-(4-aminopiperidin-1-yl)-2-(4-methoxyphenyl)-1-methyl-6-oxopyridin-3-yl]benzonitrile] | < 100 | < 100 | ≤ 100 |
| COc1ccc(-c2c(-c3ccc(C#N)cc3)cc(N3CCC(N)CC3)c(=O)n2C)cc1F [Example 83, 4-[5-(4-aminopiperidin-1-yl)-2-(3-fluoro-4-methoxyphenyl)-1-methyl-6-oxopyridin-3-yl]benzonitrile] | < 100 | < 100 | ≤ 100 |
| COc1ccc(-c2c(-c3ccc(C#N)c(F)c3)cc(N3CCC(N)CC3)c(=O)n2C)cc1F [Example 84, 4-[5-(4-aminopiperidin-1-yl)-2-(3-fluoro-4-methoxyphenyl)-1-methyl-6-oxopyridin-3-yl]-2-fluorobenzonitrile] | < 100 | < 100 | ≤ 100 |
| CN(C)c1ccc(-c2c(-c3ccc(C#N)c(F)c3)cc(N3CCC(N)CC3)c(=O)n2C)cn1 [Example 91, 4-{5-(4-aminopiperidyl)-2-[6-(dimethylamino)(3-pyridyl)]-1-methyl-6-oxo(3-hydropyridyl)}-2-fluorobenzenecarbonitrile] | < 100 | < 100 | ≤ 100 |
